Reference: ChEMBL document CHEMBL5653631, “A Potent and Selective ULK1 Inhibitor Suppresses Autophagy and Sensitizes Cancer Cells to Nutrient Stress” (iScience, 2018)

Tests used:
[1] = molecular target: [Pyruvate dehydrogenase (acetyl-transferring)] kinase isozyme 4, mitochondrial (Homo sapiens) (UniProt Q16654); assay: Inhibition of human recombinant PDHK4 at 40 nM in presence of ATP by radiometric assay relative to control
[2] = molecular target: Maternal embryonic leucine zipper kinase (Homo sapiens) (UniProt Q14680); assay: Inhibition of human recombinant MELK at 500 nM related to control ULK1
Maternal embryonic leucine zipper kinase (Homo sapiens), sequence (Q14680 whole entry, looked up): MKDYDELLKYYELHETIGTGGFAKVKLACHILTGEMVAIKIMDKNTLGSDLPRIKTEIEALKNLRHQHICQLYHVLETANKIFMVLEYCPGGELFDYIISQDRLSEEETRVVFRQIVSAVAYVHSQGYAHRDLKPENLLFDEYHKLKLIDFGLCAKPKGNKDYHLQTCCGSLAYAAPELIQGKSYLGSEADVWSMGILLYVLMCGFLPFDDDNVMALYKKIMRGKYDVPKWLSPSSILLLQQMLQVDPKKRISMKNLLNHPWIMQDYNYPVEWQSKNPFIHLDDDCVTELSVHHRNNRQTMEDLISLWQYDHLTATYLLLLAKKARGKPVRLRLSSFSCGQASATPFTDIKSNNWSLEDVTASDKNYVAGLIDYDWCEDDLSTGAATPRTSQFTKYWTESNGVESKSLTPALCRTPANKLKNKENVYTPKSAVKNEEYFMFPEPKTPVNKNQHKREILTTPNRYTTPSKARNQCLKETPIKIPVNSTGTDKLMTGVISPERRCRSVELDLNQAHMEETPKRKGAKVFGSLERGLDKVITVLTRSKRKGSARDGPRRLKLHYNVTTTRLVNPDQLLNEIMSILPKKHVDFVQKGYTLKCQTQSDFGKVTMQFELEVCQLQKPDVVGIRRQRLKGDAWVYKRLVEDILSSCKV

[3] = molecular target: TRAF2 and NCK-interacting protein kinase (Homo sapiens) (UniProt Q9UKE5); assay: Inhibition of human recombinant TNIK at 500 nM related to control ULK1
TRAF2 and NCK-interacting protein kinase (Homo sapiens), sequence (Q9UKE5 whole entry, looked up, canonical isoform): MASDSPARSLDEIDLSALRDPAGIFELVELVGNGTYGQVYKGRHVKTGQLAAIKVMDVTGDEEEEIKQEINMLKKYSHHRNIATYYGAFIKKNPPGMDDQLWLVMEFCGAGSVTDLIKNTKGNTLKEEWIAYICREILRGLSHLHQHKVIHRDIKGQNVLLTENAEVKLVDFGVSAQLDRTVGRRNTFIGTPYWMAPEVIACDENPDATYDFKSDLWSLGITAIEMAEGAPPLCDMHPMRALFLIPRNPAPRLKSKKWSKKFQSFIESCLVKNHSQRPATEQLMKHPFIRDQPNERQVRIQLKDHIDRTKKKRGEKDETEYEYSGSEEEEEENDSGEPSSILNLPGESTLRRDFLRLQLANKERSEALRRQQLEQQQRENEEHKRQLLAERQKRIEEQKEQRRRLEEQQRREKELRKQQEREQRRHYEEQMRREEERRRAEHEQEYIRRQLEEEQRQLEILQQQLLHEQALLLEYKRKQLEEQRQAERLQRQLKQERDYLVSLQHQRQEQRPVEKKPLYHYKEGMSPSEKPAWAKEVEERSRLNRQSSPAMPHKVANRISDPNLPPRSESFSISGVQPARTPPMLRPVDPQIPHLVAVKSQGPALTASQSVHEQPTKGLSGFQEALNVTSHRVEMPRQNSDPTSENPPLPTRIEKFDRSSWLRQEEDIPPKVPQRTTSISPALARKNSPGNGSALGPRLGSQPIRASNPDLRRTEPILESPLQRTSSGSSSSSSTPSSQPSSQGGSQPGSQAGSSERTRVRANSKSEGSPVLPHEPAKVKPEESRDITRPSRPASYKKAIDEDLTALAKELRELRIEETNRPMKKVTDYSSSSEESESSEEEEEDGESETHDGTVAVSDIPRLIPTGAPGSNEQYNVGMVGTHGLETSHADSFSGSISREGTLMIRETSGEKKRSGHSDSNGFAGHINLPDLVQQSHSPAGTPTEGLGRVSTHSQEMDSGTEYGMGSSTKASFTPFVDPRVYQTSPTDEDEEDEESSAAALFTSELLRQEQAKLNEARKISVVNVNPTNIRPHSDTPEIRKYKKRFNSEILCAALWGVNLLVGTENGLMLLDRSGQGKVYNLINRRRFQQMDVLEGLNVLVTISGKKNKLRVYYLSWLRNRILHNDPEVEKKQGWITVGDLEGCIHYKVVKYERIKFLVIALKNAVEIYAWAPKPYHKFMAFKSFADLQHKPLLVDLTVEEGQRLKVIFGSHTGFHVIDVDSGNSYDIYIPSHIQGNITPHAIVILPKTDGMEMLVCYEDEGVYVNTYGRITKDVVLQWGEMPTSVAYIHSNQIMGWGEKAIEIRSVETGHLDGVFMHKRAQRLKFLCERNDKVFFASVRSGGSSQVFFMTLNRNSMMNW

[4] = molecular target: T1, Phosphorylase b kinase gamma catalytic chain, liver/testis isoform (Homo sapiens) (UniProt P15735); assay: Inhibition of human recombinant PHKg2 at 15 nM in presence of ATP by radiometric assay relative to control
T1 sequence (whole entry): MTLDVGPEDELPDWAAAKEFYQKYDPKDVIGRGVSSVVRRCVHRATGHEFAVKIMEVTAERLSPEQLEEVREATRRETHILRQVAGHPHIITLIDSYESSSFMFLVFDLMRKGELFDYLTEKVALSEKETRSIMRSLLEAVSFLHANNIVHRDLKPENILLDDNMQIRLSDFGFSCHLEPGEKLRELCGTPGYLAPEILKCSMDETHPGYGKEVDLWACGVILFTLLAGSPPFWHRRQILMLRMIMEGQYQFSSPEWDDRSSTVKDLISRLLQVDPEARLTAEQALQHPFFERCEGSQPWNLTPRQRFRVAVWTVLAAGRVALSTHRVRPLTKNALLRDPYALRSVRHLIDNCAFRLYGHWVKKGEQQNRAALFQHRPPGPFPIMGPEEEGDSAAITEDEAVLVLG

[5] = molecular target: T2, Dual specificity tyrosine-phosphorylation-regulated kinase 3 (Homo sapiens) (UniProt O43781); assay: Inhibition of human recombinant DYRK3 at 15 nM related to control ULK1
T2 sequence (whole entry): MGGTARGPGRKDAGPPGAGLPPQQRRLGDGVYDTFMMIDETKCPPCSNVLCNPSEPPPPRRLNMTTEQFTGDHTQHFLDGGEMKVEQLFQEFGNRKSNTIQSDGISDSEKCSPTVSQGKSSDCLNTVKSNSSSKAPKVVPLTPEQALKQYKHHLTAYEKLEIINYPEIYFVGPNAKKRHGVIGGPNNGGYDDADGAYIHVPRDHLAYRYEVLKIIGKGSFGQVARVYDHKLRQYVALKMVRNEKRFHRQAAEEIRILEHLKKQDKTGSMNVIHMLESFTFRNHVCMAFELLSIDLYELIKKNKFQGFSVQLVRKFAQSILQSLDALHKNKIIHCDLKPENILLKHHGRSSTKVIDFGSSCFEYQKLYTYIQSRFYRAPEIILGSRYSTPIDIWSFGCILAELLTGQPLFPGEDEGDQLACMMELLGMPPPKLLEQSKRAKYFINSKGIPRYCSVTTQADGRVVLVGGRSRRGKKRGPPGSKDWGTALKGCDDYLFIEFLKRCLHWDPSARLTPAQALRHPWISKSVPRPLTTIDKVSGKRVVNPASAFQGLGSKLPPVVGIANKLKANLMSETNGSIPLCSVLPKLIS

[6] = molecular target: T3, Ephrin type-B receptor 1 (Homo sapiens) (UniProt P54762); assay: Inhibition of human recombinant EphB1 at 15 nM related to control ULK1
T3 sequence (whole entry): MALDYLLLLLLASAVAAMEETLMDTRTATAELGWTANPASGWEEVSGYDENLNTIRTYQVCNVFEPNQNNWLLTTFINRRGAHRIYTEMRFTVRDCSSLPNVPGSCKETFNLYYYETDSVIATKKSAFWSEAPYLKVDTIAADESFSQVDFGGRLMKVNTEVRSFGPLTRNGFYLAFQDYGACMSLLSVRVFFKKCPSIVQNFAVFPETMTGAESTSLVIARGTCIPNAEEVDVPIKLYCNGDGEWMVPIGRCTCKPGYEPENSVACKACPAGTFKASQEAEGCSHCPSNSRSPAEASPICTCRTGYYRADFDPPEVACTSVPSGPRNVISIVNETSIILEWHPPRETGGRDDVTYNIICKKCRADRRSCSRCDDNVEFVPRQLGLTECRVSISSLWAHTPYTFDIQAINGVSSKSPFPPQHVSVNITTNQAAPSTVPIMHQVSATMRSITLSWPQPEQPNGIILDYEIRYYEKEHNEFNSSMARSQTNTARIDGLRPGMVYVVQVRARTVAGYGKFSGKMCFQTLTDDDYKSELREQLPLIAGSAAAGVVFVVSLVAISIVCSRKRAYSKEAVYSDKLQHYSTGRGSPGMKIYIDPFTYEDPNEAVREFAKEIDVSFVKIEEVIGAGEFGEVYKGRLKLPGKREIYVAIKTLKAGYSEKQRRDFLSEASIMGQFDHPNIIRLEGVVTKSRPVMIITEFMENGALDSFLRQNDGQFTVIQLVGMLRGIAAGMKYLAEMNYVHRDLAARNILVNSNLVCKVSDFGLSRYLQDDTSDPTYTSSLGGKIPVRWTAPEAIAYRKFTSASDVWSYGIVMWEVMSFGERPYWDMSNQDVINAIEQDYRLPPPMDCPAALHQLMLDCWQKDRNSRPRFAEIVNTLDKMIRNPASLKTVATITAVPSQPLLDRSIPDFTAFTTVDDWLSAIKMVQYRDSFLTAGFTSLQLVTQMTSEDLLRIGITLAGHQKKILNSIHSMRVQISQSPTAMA

[Pyruvate dehydrogenase (acetyl-transferring)] kinase isozyme 4, mitochondrial (Homo sapiens), sequence (Q16654 whole entry, looked up): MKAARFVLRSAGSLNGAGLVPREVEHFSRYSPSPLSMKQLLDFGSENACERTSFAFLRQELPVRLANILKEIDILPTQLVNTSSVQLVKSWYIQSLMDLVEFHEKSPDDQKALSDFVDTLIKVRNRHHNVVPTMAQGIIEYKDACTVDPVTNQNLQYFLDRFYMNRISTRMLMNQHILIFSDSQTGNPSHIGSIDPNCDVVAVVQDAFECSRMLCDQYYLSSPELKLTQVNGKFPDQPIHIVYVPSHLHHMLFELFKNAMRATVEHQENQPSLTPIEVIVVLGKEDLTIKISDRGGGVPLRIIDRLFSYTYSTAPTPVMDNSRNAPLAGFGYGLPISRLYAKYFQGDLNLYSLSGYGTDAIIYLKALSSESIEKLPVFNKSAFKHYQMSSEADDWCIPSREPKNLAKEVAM

In the case of O=C(N[C@@H](C1CC1)C(F)(F)F)c1cc(-c2cnn3cc(-c4ccc(F)cc4)cnc23)cs1, the inhibition [1] is reported as 0%.

Compound CNC(=O)c1ccccc1Oc1nc(Nc2cc(OC)c(OC)c(OC)c2)ncc1Br has a fold change (FC) [2] of 0 and a fold change (FC) [3] of 0.05.

CC(C)[C@H](NC(=O)c1cc(-c2cnn3cc(-c4ccc(OCCN5CCCCC5)cc4)cnc23)cs1)C(F)(F)F gave an inhibition [4] of 9%, a fold change (FC) [5] of 0.26 and a fold change (FC) [6] of 0.14.
